Laboratory results published in PMC4420518 (Protein Science : A Publication of the Protein Society, 2015).

Legend:
[1] = test system: TpsB4-P1 (TpsB4 POTRA1 domain); assay: 1H-15N HSQC NMR titration of 15N-labelled TpsB4-P1 with peptides; format: binding, P. aeruginosa
[2] = target: TpsB4 POTRA1 domain (TpsB4-P1; residues 42-121) (P. aeruginosa); assay: NMR titration

Substance | binding to 15N-labelled TpsB4-P1 (CSPs in 1H-15N HSQC) ([1]; 200 μM TpsB4-P1, synthetic peptides, free N- and C-termini) | exchange regime of interaction with TpsB4 POTRA1 ([1]; NMR timescale) | Kd [2] [µM]
QVFLVNPNGVLFGRGAQ [CupB5^80–96] | interacts with TpsB4‐P1 with a virtually identical pattern of CSPs | fast exchange | –
TpsA4^79-95 peptide | – | – | 1490
